The values that follow come from patent US20240041878A1, “APELIN RECEPTOR MODULATORS FOR TREATMENT OF A DISORDER OR DISEASE ASSOCIATED WITH BBB PERMEABILITY” (BioAge Labs, Inc., priority 2022, published 2024).

Assay [1] deals with NF-κB activation and IκBα phosphorylation in astrocytes. Description: Western blot of NF-κB p65 and p-IκBα/t-IκBα in astrocytes. Format: cell-based, mouse. The method, then: To stimulate astrocytes into a reactive state found in aging and neurodegenerative diseases per previous publications (Liddelow et al., 2017; Barbar et al., 2020), a combination of the cytokines TNF-α and IL-1α, and complement factor C1q, were added at 30 ng/mL, 3 ng/mL, and 400 ng/mL, respectively, into astrocyte culture media to make ‘reactive astrocyte cocktail’ (RAC) media. Astrocytes were cultured in RAC media for 24 hours, with or without various concentrations of BGE-105 (10 nM, 50 nM, 250 nM final concentration), (Pyr^1)-Apelin-13 (50 nM; Bachem, Cat. #4029110), BAY-11-7082 (50 μM; Abcam, Cat. #ab141228) or equal volume of vehicle (0.01% DMSO in PBS) (hereafter referred to as ‘RAC treatment’). […]
For analysis of astrocyte protein expression, cells were washed after RAC treatment with PBS and lysed with Neuronal Protein Extraction Reagent (Thermo Scientific, Cat. #87792), centrifuged to pellet debris, and supernatant was transferred to a new tube. Total protein concentration was measured by BCA protein assay (Thermo Scientific, Cat. #PI23227).
A general note: A western blot detects proteins with antibodies after separation by electrophoresis.

Assay [2] deals with Mouse primary astrocytes. The experiment in a line: Astrocyte glutamate uptake. The assay is classed as cell-based. The conditions noted are these: RAC+BGE-105 [10 nM, 50 nM, 250 nM] versus RAC. As to the method: To stimulate astrocytes into a reactive state found in aging and neurodegenerative diseases per previous publications (Liddelow et al., 2017; Barbar et al., 2020), a combination of the cytokines TNF-α and IL-1α, and complement factor C1q, were added at 30 ng/mL, 3 ng/mL, and 400 ng/mL, respectively, into astrocyte culture media to make 'reactive astrocyte cocktail' (RAC) media. […] Bachem, Cat. #4029110), BAY-11-7082 (50 μM; Abcam, Cat. #ab141228) or equal volume of vehicle (0.01% DMSO in PBS) (hereafter referred to as 'RAC treatment'). […] Fresh HBSS was added to each well and 100 μM glutamate (Sigma, Cat. #G1251) was added to each well. Empty wells not containing cells were filled with HBSS and 100 μM [NT] negative control. Cells were incubated at room temperature for 3 hours before HBSS was collected and glutamate concentration determined by colorimetric assay (Sigma, Cat. #MAK004). Relative change in glutamate uptake was calculated compared to negative control wells.

Assay [3] relates to SOD1^G93A mice. The experiment in a line: ICV administration in SOD1^G93A mouse model of ALS. Format: in vivo. Particulars: ICV via Alzet minipumps, 1 month. The method, then: The study accesses the effects of BGE-105 in a mouse model of ALS. The study establishes pharmacokinetic/pharmacodynamic features of intracerebroventricular (ICV) administration of BGE-105 in wildtype C57BL/6J mice. Multiple doses across multiple timepoints are tested to determine drug characteristics within the central nervous system (CNS). BGE-105 is administered to SOD1^G93A mice using Alzet minipumps connected to ICV cannulas.
Astrocyte reactivity, driven by IL-la/TNFα/C1q-mediated neurotoxicity, contributes to spinal cord motor neuron death and motor dysfunction in mouse models of ALS. […] This study first validates intraventricular administration of BGE-105 into wildtype mice to establish CNS-specific drug properties and guide optimal dose selection. Next, the efficacy of CNS delivery of BGE-105 to minimize motor neuron death, improve motor function, and extend lifespan in the SOD1^G93A mouse model of ALS is tested. For experiments in vivo, BGE-105 are administered to SOD1^G93A mice using Alzet minipumps. Alzet minipumps are implanted at 4 months of age, followed by 1 month of continuous administration of BGE-105.
Analyses of motoric, behavioral, and survival endpoints are measured. Brain, spinal cord, and skeletal muscle are dissected post mortem for histochemical and transcriptomic analyses to determine target engagement and mechanisms of action.
Alzet minipumps connected to intraventricular cannulas are utilized for continuous CNS delivery of BGE-105, akin to previous studies on APJ agonism in the CNS (Zhu et al., 2020. Apelin-36 mediates neuroprotective effects by regulating oxidative stress, autophagy and apoptosis in MPTP-induced Parkinson's disease model mice, Brain Research, Volume 1726, 2020, 146493, ISSN 0006-8993). 4-month-old SOD1^G93A mice (C57BL/6J background; strain #004435, Jackson Laboratory) of both sexes (n=12/group; 6 male, 6 female) are randomized into vehicle or two separate treatment groups before undergoing baseline motor behavior assessments including the open field, grid hang, beam walk, and accelerating rotarod. […]

With `COc1cccc(OC)c1-n1c(NS(=O)(=O)[C@@H](C)[C@H](C)c2ncc(C)cn2)nnc1-c1cncc(C)c1` [BGE-105, (2S,3R)—N-(4-(2,6-dimethoxyphenyl)-5-(5-methyl-3-pyridinyl)-4H-1,2,4-triazol-3-yl)-3-(5-methyl-2-pyrimidinyl)-2-butanesulfonamide], in assay [1] (RAC+BGE105 (50 nM) versus RAC), the “ratio of p-IκBα/tIκBα expression normalized to β-actin” value is given as “significantly reduced”. Also, the “NF-κB p65 expression normalized to β-actin” value in assay [1] (RAC+BGE-105 (50 nM) versus RAC) is “significantly reduced”. Moreover, the “percentage of glutamate uptake in RAC astrocytes” value in assay [2] was “significantly and statistically increased”. For the same compound, in assay [3], the lifespan entry was “extends lifespan”, the motor function result was “improves motor function” and the motor neuron death result is recorded as “minimizes motor neuron death”.
